Laboratory results taken from publication PMC7075904, “Tethered primary hepatocyte spheroids on polystyrene multi-well plates for high-throughput drug safety testing” (Scientific Reports, 2020).
Like-named read-outs stand apart in the source and are kept apart here.

Key:
[1] = tested on: primary human hepatocytes (PHHs) spheroids on the TS-PS system; experiment: Alamar Blue cell viability of PHHs tethered spheroids on PS plates (TS-PS); type: cell-based; details: Hepatocyte, PHHs in TS-PS, 24 hours after treatment, 3 donors
Procedure: Cryopreserved PHHs were purchased commercially from Life Technologies (Carlsbad, CA, USA) and BD Biosciences (Franklin Lakes, NJ, USA). Freshly thawed cells were cultured as described[32] with daily culture media change. Hepatocytes from three different donors (three lots of commercial cells) were used for the experiments and all assays were performed after 72 hours of culture.
Cell viability of hepatocytes was measured 24 hours after treatment with drugs using Alamar Blue cell viability assay according to manufacturer’s instructions. Drugs used for the cell viability assays (Acetaminophen, Troglitazone, Chlorpromazine and Diclofenac) were purchased from Sigma. Stock solutions of drugs were prepared in DMSO and then diluted in media to obtain desired working concentrations. Controls were treated with solvent alone (in absence of test compounds) and considered as 100% viability value.

[2] = tested on: hepatocyte tethered spheroids; experiment: Inhibition of spheroid spreading/tethering (live cell imaging of spheroid diameter); type: cell-based; details: 24 hour live cell imaging, tethered spheroids on modified PS plates
Procedure: Hepatocytes were cultured as mentioned in section 2.1 and 2.2. Once spheroid formation was observed (2–3 days after cell seeding), cells were treated with DMSO or relevant hepatotoxicants (APAP/troglitazone) at different concentrations. 24 hour live cell imaging was performed starting 2 hours after drug addition using IN Cell Analyzer 2000 Imaging System (GE Healthcare Lifesciences, Buckinghamshire, U.K.). Images were acquired every 2 hours. Images acquired at 2 hours, 8 hours, 16 hours and 24 hours were used for further analysis. Individual spheroids were identified by image segmentation using Matlab Image Processing Toolbox and Statistical Toolbox (Mathworks) and the sizes of the spheroids were determined. Density plots were acquired in R (Version 3.1.2) to show the spheroid size distribution and percentage of spheroids within a certain diameter range at different drug concentrations was plotted in Excel.

hepatocytes = details: cited from earlier work
[3] = tested on: rat hepatocytes tethered spheroids on modified PS plates; experiment: CellTiter-Glo 3D Cell Viability Assay on tethered spheroids with automated liquid handling; type: cell-based; details: 200 μM, 24 hours, rat hepatocyte tethered spheroids; DMSO-treated wells 12.32 × 10^6 RLU
Procedure: Primary hepatocytes were harvested from male Wistar rats using a two-step in situ collagenase perfusion method according to protocols described previously[19],[31]. Freshly isolated rat hepatocytes were seeded onto the different substrates at a density of 1 × 10^5 cells/cm^2 in 96-well microplates and cultured in 100 μl of William’s E culture medium supplemented with 1 mg/mL bovine serum albumin (BSA), 10 ng/mL epidermal growth factor, […] insulin, 5 nM dexamethasone, 50 ng/mL linoleic acid, 100 units/mL penicillin and […]. Media was changed daily during the entire culture period. For collagen monolayer culture, neutralized 1.5 mg/ml Type I bovine collagen (Advanced BioMatrix, San Diego, CA, USA) was coated on the surface of the microplates.
Cell attachment and tethered spheroid formation was monitored using phase contrast microscopy for a period of seven days. In addition, CellTiter-Glo 3D Cell Viability Assay (Promega, Madison, Wisconsin, USA), which determines the number of viable cells present in a 3D cell culture/spheroid by quantifying the amount of ATP present, was used to test the variability in cell attachment across the plate and adaptation of the plate to an automated liquid handling system 5 days after cells seeding. […] After that, CellTiter-Glo 3D was added to each of the wells and the relative light units (RLU) were quantified.

SMILES: CC(=O)Nc1ccc(O)cc1 [Acetaminophen]
- IC50 [1]: 50 mM
- IC50 ([2]; read-out: IC50 using changes in cellular dynamics (spheroids of diameter 90–120 μm decreased by 50% compared to untreated control)): 5 mM
- IC50 (hepatocytes; read-out: IC50 (conventional cell viability assays)): 8 to 40 mM

SMILES: CN(C)CCCN1c2ccccc2Sc2ccc(Cl)cc21 [Chlorpromazine]
- CellTiter-Glo 3D signal (relative light units) [3]: 1.55 × 10^4 RLU
- IC50 [1]: 0.122 mM

SMILES: O=C(O)Cc1ccccc1Nc1c(Cl)cccc1Cl [Diclofenac]
- IC50 [1]: 4 mM

SMILES: Cc1c(C)c2c(c(C)c1O)CCC(C)(COc1ccc(CC3SC(=O)NC3=O)cc1)O2 (stereo not drawn) [Troglitazone]
- IC50 [1]: 0.1 mM
- IC50 ([2]; read-out: Concentration at which spheroids of diameter 90–120 μm decreased by 50% compared to untreated control): 0.01 mM
- IC50 (hepatocytes; read-out: IC50 (reported)): 0.14 mM
